Key:
[1] = biological target: T1, EZH2 within the PRC2 complex (Homo sapiens, UniProt Q15910); experiment: Assay Protocol 1: EZH2 methyltransferase scintillation proximity assay, mononucleosome substrate; type: biochemical; conditions: Assay Protocol 1; SPA, 3H-SAM, Histone H3 of mononucleosome purified from HeLa cells; 5-member PRC2 complex; read-out: EZH2 IC50
T1 construct: FLAG; made in house; host or cells: Sf9 cells
Method: Compounds contained herein were evaluated for their ability to inhibit the methyltransferase activity of EZH2 within the PRC2 complex. […] Mononucleosomes were captured on SPA beads and the resulting signal is read on a ViewLux plate reader. • 1. Prepare 10 mM stock of compounds from solid in 100% DMSO. • 2. […] Dispense 100 nL of compound from the dilution plate into reaction plates (Grenier Bio-One, 384-well, Cat#784075). Prepare the following solutions: • 1. 50 mM Tris-HCl, pH 8: Per 1 L of base buffer, combine 1 M Tris-HCl, pH 8 (50 mL) and distilled water (950 mL). • 2. 1× Assay Buffer: […] SPA Bead Suspension: […] Per 10 mL of 2× Substrate Solution, combine 1× Assay Buffer (9728.55 uL), 800 ug/mL mononucleosomes (125 uL), 1 mM cold SAM (4 uL), and 7.02 uM 3H-SAM (142.45 uL; 0.55 mCi/mL) to provide a final concentration of 5 ug/mL nucleosomes, 0.2 uM cold SAM, and 0.05 uM 3H-SAM. • 6. 2.67× Quench/Bead Mixture: Per 10 mL of 2.67× Quench/Bead Mixture, combine ddH2O (9358 uL), 10 mM cold SAM (267 uL), 40 mg/mL Bead Suspension (375 uL) to provide a final concentration of 100 uM cold SAM and 0.5 mg/mL SPA beads. • 1. Dispense 100 nL/well of 100× Compound to test wells (as noted above). • 2. […] • 1. Dispense 5 uL/well of 1× Assay Buffer to column 18 (low control reactions). • 2. Dispense 5 uL/well of 2× Enzyme Solution to columns 1-17, 19-24. • 3. Spin assay plates for ˜1 minute at 500 rpm. • 4. Stack the assay plates, covering the top plate. • 5. Incubate the compound/DMSO with the enzyme for 30 minutes at room temperature. • 6. Dispense 5 uL/well of 2× Substrate Solution to columns 1-24. • 7. Spin assay plates for ˜1 minute at 500 rpm. • 8. Stack the assay plates, covering the top plate. • 9. Incubate the assay plates at room temperature for 1 hour. • 1. Dispense 5 uL/well of the 3× Quench/Bead Mixture to columns 1-24. • 2. Seal the top of each assay plate with adhesive TopSeal. • 3. Spin assay plates for ˜1 minute at 500 rpm. • 4. […] • 1. Read the assay plates on the Viewlux Plate Reader utilizing the 613 nm emission filter with a 300 s read time. Reagent addition can be done manually or with automated liquid handler. The final DMSO concentration in this assay is 1%. The positive control is in column 6; negative control is in column 18. Final starting concentration of compounds is 100 μM. Percent inhibition was calculated relative to the DMSO control for each compound concentration and the resulting values were fit using standard IC50 fitting parameters within the ABASE data fitting software package.

[2] = biological target: T1, EZH2 within the PRC2 complex; experiment: Assay Protocol 2: EZH2 methyltransferase scintillation proximity assay, biotinylated histone H3 peptide substrate; type: biochemical; conditions: SPA, 3H-SAM, biotinylated unmethylated histone H3K27 peptide substrate, 5-member PRC2 complex
In short: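 PRC2-complexed EZH2 was run in 50 mM Tris-HCl pH 8, 2 mM MgCl2, 4 mM DTT and 0.001% Tween-20. It was added to a 2× mix of 10 uM biotinylated H3K27 peptide, 0.15 uM 3H-SAM and 2.85 uM cold SAM with streptavidin SPA beads. After 60 min at room temperature and a cold-SAM quench, IC50 was fitted from percent inhibition versus DMSO.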

T1 sequence (Q15910 whole entry): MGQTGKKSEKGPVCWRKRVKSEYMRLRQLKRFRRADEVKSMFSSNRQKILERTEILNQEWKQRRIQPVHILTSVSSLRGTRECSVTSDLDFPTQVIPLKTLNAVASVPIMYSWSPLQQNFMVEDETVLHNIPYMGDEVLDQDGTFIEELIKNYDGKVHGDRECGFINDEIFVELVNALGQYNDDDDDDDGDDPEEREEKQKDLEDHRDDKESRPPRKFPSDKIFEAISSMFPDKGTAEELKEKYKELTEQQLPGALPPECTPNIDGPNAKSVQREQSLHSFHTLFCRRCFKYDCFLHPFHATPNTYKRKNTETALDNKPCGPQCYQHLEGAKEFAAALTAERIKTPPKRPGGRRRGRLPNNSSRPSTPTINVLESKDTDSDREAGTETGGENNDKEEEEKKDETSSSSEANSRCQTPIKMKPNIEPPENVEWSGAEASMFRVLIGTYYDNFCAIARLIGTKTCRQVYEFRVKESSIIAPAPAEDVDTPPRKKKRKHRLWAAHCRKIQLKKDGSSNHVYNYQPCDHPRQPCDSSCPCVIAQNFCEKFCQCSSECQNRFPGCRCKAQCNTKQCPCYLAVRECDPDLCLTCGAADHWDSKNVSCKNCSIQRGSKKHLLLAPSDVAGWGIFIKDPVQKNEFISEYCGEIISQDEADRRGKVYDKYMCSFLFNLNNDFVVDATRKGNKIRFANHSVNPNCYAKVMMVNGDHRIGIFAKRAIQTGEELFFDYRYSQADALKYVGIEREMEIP
T1 sequence (O75530 whole entry partner): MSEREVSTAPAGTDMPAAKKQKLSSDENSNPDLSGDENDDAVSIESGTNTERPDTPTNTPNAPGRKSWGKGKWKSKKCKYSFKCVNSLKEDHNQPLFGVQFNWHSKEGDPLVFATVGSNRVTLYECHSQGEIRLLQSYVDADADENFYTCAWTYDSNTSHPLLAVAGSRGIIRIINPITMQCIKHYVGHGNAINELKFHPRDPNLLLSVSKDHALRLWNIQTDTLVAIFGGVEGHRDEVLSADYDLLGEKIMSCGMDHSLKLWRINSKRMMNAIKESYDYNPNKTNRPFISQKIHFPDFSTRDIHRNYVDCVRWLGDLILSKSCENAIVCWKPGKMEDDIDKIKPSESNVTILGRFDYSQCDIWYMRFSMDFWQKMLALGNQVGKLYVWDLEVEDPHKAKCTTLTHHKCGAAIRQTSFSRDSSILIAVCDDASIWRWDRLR
T1 sequence (Q15022 whole entry partner): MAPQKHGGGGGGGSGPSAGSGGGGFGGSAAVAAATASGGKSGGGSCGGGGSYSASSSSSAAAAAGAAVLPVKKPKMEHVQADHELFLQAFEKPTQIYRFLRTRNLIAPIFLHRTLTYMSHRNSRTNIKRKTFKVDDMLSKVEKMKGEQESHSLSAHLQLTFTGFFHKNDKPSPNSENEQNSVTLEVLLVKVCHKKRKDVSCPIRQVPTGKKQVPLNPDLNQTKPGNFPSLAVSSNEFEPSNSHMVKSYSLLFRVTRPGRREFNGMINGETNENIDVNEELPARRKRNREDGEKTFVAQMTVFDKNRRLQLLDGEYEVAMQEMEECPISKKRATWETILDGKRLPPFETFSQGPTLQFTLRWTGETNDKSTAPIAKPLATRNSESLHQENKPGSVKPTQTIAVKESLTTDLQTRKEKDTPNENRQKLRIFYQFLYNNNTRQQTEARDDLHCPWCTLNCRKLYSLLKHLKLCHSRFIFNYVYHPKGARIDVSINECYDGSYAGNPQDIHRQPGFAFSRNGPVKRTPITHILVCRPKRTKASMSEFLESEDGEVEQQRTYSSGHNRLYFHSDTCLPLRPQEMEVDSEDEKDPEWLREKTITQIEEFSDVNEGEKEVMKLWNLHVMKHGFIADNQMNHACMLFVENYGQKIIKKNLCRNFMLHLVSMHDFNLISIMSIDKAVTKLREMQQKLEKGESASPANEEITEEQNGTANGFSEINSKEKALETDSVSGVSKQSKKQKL
T1 sequence (Q09028 whole entry partner): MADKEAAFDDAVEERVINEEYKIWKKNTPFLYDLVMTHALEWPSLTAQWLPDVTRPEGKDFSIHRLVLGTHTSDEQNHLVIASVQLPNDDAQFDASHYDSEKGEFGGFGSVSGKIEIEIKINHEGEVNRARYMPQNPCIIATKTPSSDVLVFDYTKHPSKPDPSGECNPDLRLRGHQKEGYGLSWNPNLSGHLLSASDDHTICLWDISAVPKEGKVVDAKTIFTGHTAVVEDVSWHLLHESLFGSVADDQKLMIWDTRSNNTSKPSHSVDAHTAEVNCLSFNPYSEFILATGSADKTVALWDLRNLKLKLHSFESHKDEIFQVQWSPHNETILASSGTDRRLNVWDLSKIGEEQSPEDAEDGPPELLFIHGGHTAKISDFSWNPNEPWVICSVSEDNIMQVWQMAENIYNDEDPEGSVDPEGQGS
T1 sequence (Q6ZN18 whole entry partner): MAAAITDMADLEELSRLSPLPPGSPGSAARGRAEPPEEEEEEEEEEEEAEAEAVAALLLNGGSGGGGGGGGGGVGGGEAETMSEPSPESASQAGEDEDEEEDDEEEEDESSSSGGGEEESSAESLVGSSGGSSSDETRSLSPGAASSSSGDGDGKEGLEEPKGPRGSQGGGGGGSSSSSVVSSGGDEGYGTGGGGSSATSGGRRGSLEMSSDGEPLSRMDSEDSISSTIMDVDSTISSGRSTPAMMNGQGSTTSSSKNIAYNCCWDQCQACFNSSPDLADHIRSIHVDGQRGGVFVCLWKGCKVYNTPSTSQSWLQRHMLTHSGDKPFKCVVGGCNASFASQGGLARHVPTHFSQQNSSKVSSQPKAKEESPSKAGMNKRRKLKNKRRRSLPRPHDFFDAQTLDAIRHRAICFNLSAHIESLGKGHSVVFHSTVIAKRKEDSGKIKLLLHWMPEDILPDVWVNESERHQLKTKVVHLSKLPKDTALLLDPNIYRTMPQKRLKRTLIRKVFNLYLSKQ

Compound | IC50 [1] [nM] | IC50 [2] [nM]
CCN(c1cccc2c1C/C=C/CCCc1cc(C)[nH]c(=O)c1CNC2=O)C1CCOCC1 [Example 19, (E)-11-(ethyl(tetrahydro-2H-pyran-4-yl)amino)-3-methyl-5,6,7,10,16,17-hexahydro-1H-benzo[c]pyrido[4,3-k][1]azacyclotridecine-1,15(2H)-dione] | 40 | 79
CCN(c1cccc2c1CCCCCCc1cc(C)[nH]c(=O)c1CNC2=O)C1CCOCC1 [Example 20, 11-(ethyl(tetrahydro-2H-pyran-4-yl)amino)-3-methyl-5,6,7,8,9,10,16,17-octahydro-1H-benzo[c]pyrido[4,3-k][1]azacyclotridecine-1,15(2H)-dione] | 25 | 1000
CCN(c1cccc2c1C/C=C\CCCc1cc(C)[nH]c(=O)c1CNC2=O)C1CCOCC1 [Example 21, (Z)-11-(ethyl(tetrahydro-2H-pyran-4-yl)amino)-3-methyl-5,6,7,10,16,17-hexahydro-1H-benzo[c]pyrido[4,3-k][1]azacyclotridecine-1,15(2H)-dione] | 100 | 398
CCN(c1cccc2c1C/C=C/CCc1cc(C)[nH]c(=O)c1CNC2=O)C1CCC(F)(F)CC1 [Example 30, (E)-10-((4,4-difluorocyclohexyl)(ethyl)amino)-3-methyl-5,6,15,16-tetrahydrobenzo[c]pyrido[4,3-j][1]azacyclododecine-1,14(2H,9H)-dione] | 16 | 79
CCN(c1cccc2c1C/C=C/CCc1cc(C)[nH]c(=O)c1CNC2=O)C1CCNCC1 [Example 31, (E)-10-(ethyl(piperidin-4-yl)amino)-3-methyl-5,6,15,16-tetrahydrobenzo[c]pyrido[4,3-j][1]azacyclododecine-1,14(2H,9H)-dione] | 13 | 200
CCN(c1cccc2c1C/C=C/CCc1cc(C)[nH]c(=O)c1CNC2=O)C1CCN(C(C)C)CC1 [Example 32, (E)-10-(ethyl(1-isopropylpiperidin-4-yl)amino)-3-methyl-5,6,15,16-tetrahydrobenzo[c]pyrido[4,3-j][1]azacyclododecine-1,14(2H,9H)-dione] | 50 | 158
CCN(c1cccc2c1C/C=C/CCc1cc(C)[nH]c(=O)c1CNC2=O)C1CCN(C)CC1 [Example 33, (E)-10-(ethyl(1-methylpiperidin-4-yl)amino)-3-methyl-5,6,15,16-tetrahydrobenzo[c]pyrido[4,3-j][1]azacyclododecine-1,14(2H,9H)-dione] | 40 | 200
CCN(c1cccc2c1C/C=C/CCc1cc(C)[nH]c(=O)c1CNC2=O)C1CCN(S(C)(=O)=O)CC1 [Example 34, (E)-10-(ethyl(1-(methylsulfonyl)piperidin-4-yl)amino)-3-methyl-5,6,15,16-tetrahydrobenzo[c]pyrido[4,3-j][1]azacyclododecine-1,14(2H,9H)-dione] | 63 | 126
CCN(c1cccc2c1C/C=C/CCc1cc(C)[nH]c(=O)c1CNC2=O)C1CCN(CCO)CC1 [Example 35, (E)-10-(ethyl(1-(2-hydroxyethyl)piperidin-4-yl)amino)-3-methyl-5,6,15,16-tetrahydrobenzo[c]pyrido[4,3-j][1]azacyclododecine-1,14(2H,9H)-dione] | 40 | 200
CCN(c1cccc2c1C/C=C/CCc1cc(C)[nH]c(=O)c1CNC2=O)[C@H]1CC[C@H](N)CC1 [Example 36, (E)-10-((trans-4-aminocyclohexyl)(ethyl)amino)-3-methyl-5,6,15,16-tetrahydrobenzo[c]pyrido[4,3-j][1]azacyclododecine-1,14(2H,9H)-dione] | 16 | 126
CCN(c1cccc2c1C/C=C/CCc1cc(C)[nH]c(=O)c1CNC2=O)[C@H]1CC[C@H](N(C)C)CC1 [Example 37, (E)-10-((trans-4-(dimethylamino)cyclohexyl)(ethyl)amino)-3-methyl-5,6,15,16-tetrahydrobenzo[c]pyrido[4,3-j][1]azacyclododecine-1,14(2H,9H)-dione] | 50 | 126
CCN(c1cccc2c1C/C=C/CNCc1cc(C)[nH]c(=O)c1CNC2=O)C1CCOCC1 [Example 38, (E)-11-(ethyl(tetrahydro-2H-pyran-4-yl)amino)-3-methyl-5,6,7,10,16,17-hexahydro-1H-benzo[h]pyrido[4,3-c][1,6]diazacyclotridecine-1,15(2H)-dione] | 100 | 158
CCN(c1cccc2c1C/C=C\CNCc1cc(C)[nH]c(=O)c1CNC2=O)C1CCOCC1 [Example 39, (Z)-11-(ethyl(tetrahydro-2H-pyran-4-yl)amino)-3-methyl-5,6,7,10,16,17-hexahydro-1H-benzo[h]pyrido[4,3-c][1,6]diazacyclotridecine-1,15(2H)-dione] | 1260 | 2000
CCN(c1cccc2c1C/C=C/CCCc1cc(C)[nH]c(=O)c1CNC2=O)C1CCNCC1 [Example 40, (E)-11-(ethyl(piperidin-4-yl)amino)-3-methyl-5,6,7,10,16,17-hexahydro-1H-benzo[c]pyrido[4,3-k][1]azacyclotridecine-1,15(2H)-dione] | 32 | 100
CCN(c1cccc2c1C/C=C/CCc1cc(C)[nH]c(=O)c1CNC2=O)C1CCN(CC2CC2)CC1 [Example 41, (E)-10-((1-(cyclopropylmethyl)piperidin-4-yl)(ethyl)amino)-3-methyl-5,6,15,16-tetrahydrobenzo[c]pyrido[4,3-j][1]azacyclododecine-1,14(2H,9H)-dione] | 40 | 40
CCN(c1cccc2c1C/C=C/CCc1cc(C)[nH]c(=O)c1CNC2=O)C1CCN(CCC(F)(F)F)CC1 [Example 43, (E)-10-(ethyl(1-(3,3,3-trifluoropropyl)piperidin-4-yl)amino)-3-methyl-5,6,15,16-tetrahydrobenzo[c]pyrido[4,3-j][1]azacyclododecine-1,14(2H,9H)-dione] | 63 | 200
CCN(c1cccc2c1C/C=C/CCc1cc(C)[nH]c(=O)c1CNC2=O)C1CCN(C(CO)CO)CC1 [Example 51, (E)-10-((1-(1,3-dihydroxypropan-2-yl)piperidin-4-yl)(ethyl)amino)-3-methyl-5,6,15,16-tetrahydrobenzo[c]pyrido[4,3-j][1]azacyclododecine-1,14(2H,9H)-dione] | 200 | 398
CCN(c1cccc2c1C/C=C\CCc1cc(C)[nH]c(=O)c1CNC2=O)C1CCNCC1 [Example 52, (Z)-10-(ethyl(piperidin-4-yl)amino)-3-methyl-5,6,15,16-tetrahydrobenzo[c]pyrido[4,3-j][1]azacyclododecine-1,14(2H,9H)-dione] | 631 | 2000
CCN(c1cccc2c1CC=CCc1cc(C)[nH]c(=O)c1CNC2=O)C1CCNCC1 [Example 54, 9-(ethyl(piperidin-4-yl)amino)-3-methyl-5,8,14,15-tetrahydro-1H-benzo[c]pyrido[4,3-i][1]azacycloundecine-1,13(2H)-dione] | 3980 | 10000
(E)-11-(ethyl(1-isopropylpiperidin-4-yl)amino)-3-methyl-5,6,7,10,16,17-hexahydro-1H-benzo[c]pyrido[4,3-k][1]azacyclotridecine-1,15(2H)-dione [Example 42] | 20 | 158

From patent US20160122342A1, “ENHANCER OF ZESTE HOMOLOG 2 INHIBITORS” (GLAXOSMITHKLINE INTELLECTUAL PROPERTY (NO.2) LIMITED, priority 2013, published 2016)
